Experimental data taken from publication PMC5365645, “Preclinical Pharmacokinetics and Pharmacodynamic Target of SCY-078, a First-in-Class Orally Active Antifungal Glucan Synthesis Inhibitor, in Murine Models of Disseminated Candidiasis” (Antimicrobial Agents and Chemotherapy, 2017).

How the values were obtained:
[1] = In vitro metabolic stability in hepatic microsomes; format: in vitro ADME, dog; conditions: for remaining at 0.5 h, 1 µM: read-out: % remaining after 30 min
Description: The metabolic stability of SCY-078 was assessed after incubation with mouse, rat, dog, and human liver microsomes (Table 2) ([10]). […] The half-lives in rodent, dog, and human liver microsomes were ≥125, ≥29, and ≥42 min, respectively.
(§1) The metabolic stability of SCY-078 was evaluated with male and female mouse, male rat, male and female dog, and mixed-gender human liver microsomes (XenoTech, Lenexa, KS). SCY-078 (1 μM) was incubated with pooled liver microsomes (0.5 mg protein/ml) for 0, 5, 10, 20, and 30 min at 37°C in the presence of NADPH. Aliquots were taken at each sampling time point and extracted with 5 volumes of ice-cold acetonitrile containing the internal standard (d9-SCY-078, 125 ng/ml). Supernatants from the incubation mixtures were analyzed for the parent compound by LC-MS/MS according to the conditions described below. The metabolic competency of microsomal preparations was established using the control compounds 7-ethoxycoumarin, propranolol, and verapamil. The in vitro intrinsic clearance (CLint), the CLint scaled to the in vivo intrinsic clearance (CL′int), and the half-life were determined for SCY-078 incubated with microsomes from each species.

in vivo = test: in vivo; set-up: species or system Wistar Han rats; conditions: Wistar Han, rat; for half-life: t1/2
Description: The pharmacokinetics and bioavailability of SCY-078 were evaluated in uninfected mouse, rat, and dog after p.o. and i.v. administration. The in vivo phases of the PK studies were performed at either […] (Waltham, MA) or MPI Research (Mattawan, MI) after an Institutional Animal Care and Use Committee (IACUC) review. […] and MPI Research are Association for Assessment and Accreditation of Laboratory Animal Care International (AAALAC)-approved facilities. […] The peak concentration (Cmax), the time to maximum concentration (Tmax), the half-life, and the AUC were determined from composite mean plasma concentration-time data for rodents and individual plasma concentration-time data for dogs. All doses and plasma concentrations of SCY-078 are presented as free base. Male and female Wistar Han rats (n = 3/sex/group/time point) weighing 0.329 to 0.398 kg (males) or 0.187 to 0.244 kg (females) received a single 5-mg/kg dose of SCY-078 as an i.v. injection in the lateral tail administered over 5 min or an oral dose of 20 mg/kg as described above. Blood specimens were collected from four animals/time point/group using a sparse sampling strategy via the sublingual vein at time intervals to 72 h postdosing and processed as described above.

[2] = In vitro metabolic stability in hepatic microsomes, dog or human summary; format: in vitro ADME; conditions: both sexes, liver microsomes
Description: Scaling intrinsic clearance to hepatic clearance based on liver blood flow indicates low clearance in rodents and moderate clearance in dogs and humans ([15]). These solubility, permeability, and metabolic stability data are consistent with SCY-078 being well absorbed from the intestine and able to achieve clinically relevant exposures following oral delivery.
as §1

[3] = Plasma protein binding by equilibrium dialysis; format: in vitro ADME; conditions: pH 7.4
Description: Protein binding of [^3H]SCY-078 in mouse, rat, dog, and human plasma was determined by means of equilibrium dialysis and liquid scintillation counting. Tritium-labeled SCY-078 in ethanol was added to unlabeled SCY-078 in methanol to prepare stock solutions at 10, 100, and 1,000 μM SCY-078 with constant activity.
Protein binding was determined against isotonic phosphate-buffered saline (pH 7.4) at 37°C for 24 h. Aliquots (10 μl) of each stock solution were added to pooled DBA mouse (n = >10 animals), Sprague-Dawley rat, beagle dog, or human plasma (1 ml) to achieve final total concentrations of 0.1, 1, and 10 μM SCY-078. The final concentration of the organic solvent was 0.9% (vol/vol). Dialysis was performed in 1-ml acrylic dialysis cells (Scienceware, South Wayne, NJ), where plasma and buffer were separated by a 12.4-kDa cutoff membrane (Sigma, St. Louis, MO). After incubation, aliquots (100 μl) of plasma and phosphate buffer were counted for radioactivity (Beckman LS6500 liquid scintillation counter), and unbound fractions of SCY-078 were estimated based on the following calculation: unbound fraction = radioactivity (dpm/0.1 ml) in buffer/total radioactivity (dpm/0.1 ml) in plasma.

[4] = both sexes, pooled liver microsomes, dog liver microsomes, summary of male and female
[5] = pooled liver microsomes, female dog liver microsomes
[6] = pooled liver microsomes, male dog liver microsomes

CC(C)[C@@H](C)[C@@]1(C)CC[C@]2(C)[C@H]3CC[C@@H]4[C@@]5(COC[C@@]4(C)[C@@H](OC[C@](C)(N)C(C)(C)C)[C@H](n4ncnc4-c4ccncc4)C5)C3=CC[C@@]2(C)[C@@H]1C(=O)O [SCY-078, (1S,4aR,6aS,7R,8R,10aR,10bR,12aR,14R,15R)-15-[[(2R)-2-amino-2,3,3-trimethylbutyl]oxy]-8-[(1R)-1,2-dimethylpropyl]-14-[5-(4-pyridinyl)-1H-1,2,4-triazol-1-yl]-1,6,6a,7,8,9,10,10a,10b,11,12,12a-dodecahydro-1,6a,8,10a-tetramethyl-4H-1,4a-propano-2H-phenanthro[1,2-c]pyran-7-carboxylic acid]
half-life at 1 μM [1, 4]: ≥ 0.483 h
microsomal CLint at 1 μM [1, 4]: ≤ 48 µL/min/mg
CLint scaled at 1 μM ([1]; both sexes, pooled liver microsomes, dog liver microsomes, summary of male and female, read-out: CL′int (CLint scaled to in vivo intrinsic clearance)): ≤ 0.069 mL/min/kg
remaining at 0.5 h, 1 µM ([1]; female dog liver microsomes): 84%
remaining at 0.5 h, 1 µM ([1]; male dog liver microsomes): 49%
half-life at 1 μM [1, 5]: 1.53 h
microsomal CLint at 1 μM [1, 5]: 15 µL/min/mg
half-life at 1 μM [1, 6]: 0.483 h
microsomal CLint at 1 μM [1, 6]: 48 µL/min/mg
AUC(0-inf) (in vivo; both sexes, iv, 5 mg/kg): 11700 ng·h/mL
AUC(0-t) (in vivo; both sexes, iv, 5 mg/kg): 10300 ng·h/mL
Vd (in vivo; both sexes, iv, 5 mg/kg): 4.7 L/kg
clearance (in vivo; both sexes, iv, 5 mg/kg): 7.33 mL/min/kg
half-life (in vivo; both sexes, iv, 5 mg/kg): ~8.7 h
AUC(0-inf) (in vivo; both sexes, po, 20 mg/kg): 20800 ng·h/mL
AUC(0-t) (in vivo; both sexes, po, 20 mg/kg): 16400 ng·h/mL
Cmax (in vivo; both sexes, po, 20 mg/kg): 1010 ng/mL
Tmax (in vivo; both sexes, po, 20 mg/kg): 8 h
bioavailability (in vivo; both sexes, po, 20 mg/kg, Bioavailability): ~45%
half-life (in vivo; both sexes, po, 20 mg/kg): ~9.1 h
Dose normalized AUC0–∞ to a 1-mg/kg dose (in vivo; both, iv): ~2.4 µg·h/mL
t1/2 (in vivo; both, iv, 5 mg/kg): 8.7 h
remaining at 0.5 h, 1 µM ([2]; dog or human microsomes, read-out: % remaining after 30 min): ~50%
half-life at 1 μM ([2]; dog or human microsomes, read-out: Half-life (t0.5)): ≥ 0.483 h
microsomal CLint at 1 μM ([2]; larger species (dog, human), read-out: Intrinsic clearance): < 48 µL/min/mg
fraction unbound at 24 h ([3]; DBA, mouse plasma): 0.002
fraction unbound at 24 h, 0.1 μM ([3]; DBA, mouse plasma): 0.002
fraction unbound at 24 h, 1 μM ([3]; DBA, mouse plasma): 0.002
fraction unbound at 24 h, 10 μM ([3]; DBA, mouse plasma): 0.002
fraction unbound at 24 h, 0.1 μM ([3]; Sprague-Dawley, rat plasma): 0.002
fraction unbound at 24 h, 1 μM ([3]; Sprague-Dawley, rat plasma): 0.003
fraction unbound at 24 h, 10 μM ([3]; Sprague-Dawley, rat plasma): 0.002
fraction unbound at 24 h, 0.1 μM ([3]; beagle, dog plasma): 0.004
fraction unbound at 24 h, 1 μM ([3]; beagle, dog plasma): 0.005
fraction unbound at 24 h, 10 μM ([3]; beagle, dog plasma): 0.003
fraction unbound at 24 h, 0.1 μM ([3]; human plasma): 0.002
fraction unbound at 24 h, 1 μM ([3]; human plasma): 0.003
fraction unbound at 24 h, 10 μM ([3]; human plasma): 0.004
